Measurements taken from patent US7964376B2, “Chimeric proteins and their use in methods to screen for sweet taste modulators” (Givaudan SA, priority 2006, dated 2011).
Residues, ends and D or L forms follow the SMILES beside them.

What was measured:
[1] = molecular target: T1, hCaSR (Homo sapiens, UniProt P41180); assay: Fluo-4 calcium assay, transiently transfected HEK293T/Gα16-gustducin 44 cells (Example 6a); type: cell-based; details: for hCaSR AVG (net increase in fluorescence over baseline): mean of six replicates, Calcium Chloride (2 mM), Sucralose (0.5 mM), aspartame (0.85 mM), perillartine (50 μM), cinnamonitrile (100 EM), cyclamate (1 mM), NDHC (0.33 mM)
T1 sequence (P41180 20-1078): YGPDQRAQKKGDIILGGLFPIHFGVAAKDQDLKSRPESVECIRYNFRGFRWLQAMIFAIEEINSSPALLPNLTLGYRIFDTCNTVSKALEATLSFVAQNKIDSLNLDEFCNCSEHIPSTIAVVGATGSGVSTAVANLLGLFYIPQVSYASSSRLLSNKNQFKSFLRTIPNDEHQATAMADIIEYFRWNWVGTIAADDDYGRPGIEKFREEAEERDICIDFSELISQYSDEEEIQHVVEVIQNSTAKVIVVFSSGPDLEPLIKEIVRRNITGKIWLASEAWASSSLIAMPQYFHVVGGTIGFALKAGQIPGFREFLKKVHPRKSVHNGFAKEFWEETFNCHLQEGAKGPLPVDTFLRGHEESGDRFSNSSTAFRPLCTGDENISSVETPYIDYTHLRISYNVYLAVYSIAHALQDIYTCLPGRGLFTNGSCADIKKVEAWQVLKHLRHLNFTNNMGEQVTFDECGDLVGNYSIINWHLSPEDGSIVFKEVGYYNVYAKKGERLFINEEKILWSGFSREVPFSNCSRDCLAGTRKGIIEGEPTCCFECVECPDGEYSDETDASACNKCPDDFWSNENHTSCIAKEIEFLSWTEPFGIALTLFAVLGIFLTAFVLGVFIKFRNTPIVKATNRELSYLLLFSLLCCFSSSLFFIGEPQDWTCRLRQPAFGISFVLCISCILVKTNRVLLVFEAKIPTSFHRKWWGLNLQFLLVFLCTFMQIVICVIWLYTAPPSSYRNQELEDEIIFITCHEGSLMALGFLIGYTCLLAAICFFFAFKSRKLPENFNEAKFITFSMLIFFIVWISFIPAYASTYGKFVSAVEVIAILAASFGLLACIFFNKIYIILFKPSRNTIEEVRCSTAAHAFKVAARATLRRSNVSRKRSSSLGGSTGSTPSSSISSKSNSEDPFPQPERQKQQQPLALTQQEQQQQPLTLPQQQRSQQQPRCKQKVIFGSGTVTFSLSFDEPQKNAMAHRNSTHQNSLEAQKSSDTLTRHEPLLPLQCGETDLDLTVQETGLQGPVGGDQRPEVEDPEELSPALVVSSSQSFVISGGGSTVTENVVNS
Excerpt: The hCaSR vector is used as positive control for a GPCR that is sensitive to calcium, as it is sensitive to calcium and the calcium binding site lies in the VFT of this receptor, which is where the VFT for the chimera is derived from.
(§1) The following ligands were used for to stimulate the transfected cells in the concentrations as indicated in brackets: […]

[2] = tested on: Mock transfected HEK293T/Gα16-gustducin 44 cells; assay: Fluo-4 calcium assay, negative control mock transfection (Examples 6a, 6b); type: cell-based, human; details: mean of six replicates, Calcium Chloride (2 mM), Sucralose (0.5 mM), perillartine (50 μM); for Neg. control (mock transfection) AVG (net increase in fluorescence over baseline): Example 6a, aspartame (0.85 mM), cinnamonitrile (100 EM), cyclamate (1 mM), NDHC (0.33 mM); for Neg. control (mock transfection) AVG (mean ΔF/F): Example 6b
Excerpt: as §1

[3] = molecular target: T2, CSR::T1R2-b homomer (Homo sapiens, UniProt P41180+Q8TE23); assay: Fluo-4 calcium assay, transiently transfected HEK293T/Gα16-gustducin 44 cells (Example 6b); details: mean of six replicates; Calcium Chloride (2 mM), Sucralose (0.5 mM), perillartine (50 μM)
T2 sequence (P41180+Q8TE23 with tags, fused parts or gaps): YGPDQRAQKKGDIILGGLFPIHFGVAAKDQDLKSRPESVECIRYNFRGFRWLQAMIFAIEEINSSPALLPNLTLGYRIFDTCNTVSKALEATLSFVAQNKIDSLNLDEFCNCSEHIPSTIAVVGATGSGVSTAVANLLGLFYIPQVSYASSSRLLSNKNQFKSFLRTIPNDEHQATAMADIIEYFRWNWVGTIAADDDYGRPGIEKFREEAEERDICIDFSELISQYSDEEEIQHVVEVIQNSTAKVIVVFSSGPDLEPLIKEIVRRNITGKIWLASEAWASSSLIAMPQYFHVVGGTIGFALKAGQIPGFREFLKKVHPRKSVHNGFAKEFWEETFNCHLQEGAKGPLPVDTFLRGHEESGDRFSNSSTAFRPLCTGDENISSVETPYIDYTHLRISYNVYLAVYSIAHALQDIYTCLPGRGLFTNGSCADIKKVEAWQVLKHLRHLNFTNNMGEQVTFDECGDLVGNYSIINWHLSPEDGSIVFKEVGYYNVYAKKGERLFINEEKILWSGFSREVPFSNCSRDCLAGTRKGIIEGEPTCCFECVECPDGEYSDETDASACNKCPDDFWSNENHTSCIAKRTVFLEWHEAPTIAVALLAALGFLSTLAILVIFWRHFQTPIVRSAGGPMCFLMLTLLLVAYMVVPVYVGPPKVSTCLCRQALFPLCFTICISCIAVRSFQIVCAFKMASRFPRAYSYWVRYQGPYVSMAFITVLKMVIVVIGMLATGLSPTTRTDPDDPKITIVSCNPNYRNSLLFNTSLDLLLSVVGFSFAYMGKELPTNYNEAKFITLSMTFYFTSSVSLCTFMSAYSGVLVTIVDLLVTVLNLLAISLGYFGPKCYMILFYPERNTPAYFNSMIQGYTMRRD
Protocol: (§2) Fluo-4 is a fluorescent indicator for intracellular calcium and allows to determine changes in the calcium concentration, in particular an increase in response to receptor activation occurring after ligand addition.
(§3) Black, clear-bottom 96-well plates were used for all assays. They were seeded the day before with 8500 transfected cells per well and maintained at 37° C. overnight in an a growth medium appropriate for the cells used. For HEK293 cells, Dulbecco's Modified Eagle medium containing high glucose, L-glutamine, pyroxidine hydrochloride, and supplemented with 10% fetal bovine serum was used for growth and maintenance of the HEK293 cells.
(§4) After the initial 1 hour loading period, the plates were washed 5 times with 100 μl per well of reduced calcium C1 buffer using an automated plate washer (BioTek) and after washing, the plate was further incubated for 30 minutes at room temperature in the dark to allow for complete de-esterification of the Fluo-4-AM. The buffer solutions were discarded, the plate was washed 5 times with 100 μl reduced calcium C1 wash buffer and finally the cells were reconstituted in 180 μl of reduced calcium C1 wash buffer.
(§5) For assay reading, the plate was placed in a FLIPR (fluorescence imaging plate reader (FLIPR-Tetra, Molecular Devices)), and receptor activation was initiated following addition of 20 μl of a 10× concentrated ligand stock solution, which were prepared in reduced calcium C1 buffer.
(§6) Receptor activation is given in relative fluorescence units (RFU) and is defined by the following equation: Fluorescence Increase=Maximum Fluorescence−baseline fluorescence, wherein the baseline fluorescence represents the mean fluorescence calculated for the first 10 to 15 seconds prior to ligand addition.
As a negative control, mock transfected cells were exposed to the same concentration of ligand and the concentration of calcium traces not corresponding to a signal was determined.
(§7) The calcium mobilization signals obtained are increase in peak fluorescence (F) normalized to the baseline fluorescence (F0). […]

[4] = molecular target: T3, T1R2/T1R3 sweet heterodimer (Homo sapiens, UniProt Q7RTX0+Q8TE23, C757R); assay: Fluo-4 calcium assay, transiently transfected HEK293T/Gα16-gustducin 44 cells (Examples 6a, 6b); type: cell-based; details: Example 6b; mean of six replicates; Calcium Chloride (2 mM), Sucralose (0.5 mM), perillartine (50 μM)
T3 construct: expressed in transfected cells; host or cells: HEK293T cells stably expressing Ga16-gustducin 44, transient co-transfection of pcDNA3.1 constructs
T3 sequence (Q8TE23 20-839): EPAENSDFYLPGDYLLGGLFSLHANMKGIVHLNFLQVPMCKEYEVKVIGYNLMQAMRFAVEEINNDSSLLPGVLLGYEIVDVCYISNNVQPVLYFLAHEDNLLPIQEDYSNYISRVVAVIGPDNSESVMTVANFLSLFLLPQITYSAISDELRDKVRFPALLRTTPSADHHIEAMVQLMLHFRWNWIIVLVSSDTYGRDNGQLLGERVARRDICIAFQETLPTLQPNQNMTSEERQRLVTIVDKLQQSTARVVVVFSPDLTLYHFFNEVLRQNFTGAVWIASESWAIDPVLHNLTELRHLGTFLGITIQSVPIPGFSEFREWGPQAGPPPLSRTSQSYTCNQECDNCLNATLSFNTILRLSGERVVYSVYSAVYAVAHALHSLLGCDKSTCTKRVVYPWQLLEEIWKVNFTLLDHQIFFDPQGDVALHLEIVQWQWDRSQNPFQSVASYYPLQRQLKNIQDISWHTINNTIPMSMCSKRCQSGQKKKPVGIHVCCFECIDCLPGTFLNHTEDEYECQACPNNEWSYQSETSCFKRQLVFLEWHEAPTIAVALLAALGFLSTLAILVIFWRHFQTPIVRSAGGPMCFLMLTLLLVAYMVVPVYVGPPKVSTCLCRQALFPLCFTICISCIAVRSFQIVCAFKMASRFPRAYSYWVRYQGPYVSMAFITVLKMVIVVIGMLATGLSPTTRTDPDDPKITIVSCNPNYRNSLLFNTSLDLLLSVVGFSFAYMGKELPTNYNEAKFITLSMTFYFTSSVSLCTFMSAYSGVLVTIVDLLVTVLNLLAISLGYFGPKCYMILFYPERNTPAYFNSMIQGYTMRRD
T3 sequence (Q7RTX0 21-852 C757R): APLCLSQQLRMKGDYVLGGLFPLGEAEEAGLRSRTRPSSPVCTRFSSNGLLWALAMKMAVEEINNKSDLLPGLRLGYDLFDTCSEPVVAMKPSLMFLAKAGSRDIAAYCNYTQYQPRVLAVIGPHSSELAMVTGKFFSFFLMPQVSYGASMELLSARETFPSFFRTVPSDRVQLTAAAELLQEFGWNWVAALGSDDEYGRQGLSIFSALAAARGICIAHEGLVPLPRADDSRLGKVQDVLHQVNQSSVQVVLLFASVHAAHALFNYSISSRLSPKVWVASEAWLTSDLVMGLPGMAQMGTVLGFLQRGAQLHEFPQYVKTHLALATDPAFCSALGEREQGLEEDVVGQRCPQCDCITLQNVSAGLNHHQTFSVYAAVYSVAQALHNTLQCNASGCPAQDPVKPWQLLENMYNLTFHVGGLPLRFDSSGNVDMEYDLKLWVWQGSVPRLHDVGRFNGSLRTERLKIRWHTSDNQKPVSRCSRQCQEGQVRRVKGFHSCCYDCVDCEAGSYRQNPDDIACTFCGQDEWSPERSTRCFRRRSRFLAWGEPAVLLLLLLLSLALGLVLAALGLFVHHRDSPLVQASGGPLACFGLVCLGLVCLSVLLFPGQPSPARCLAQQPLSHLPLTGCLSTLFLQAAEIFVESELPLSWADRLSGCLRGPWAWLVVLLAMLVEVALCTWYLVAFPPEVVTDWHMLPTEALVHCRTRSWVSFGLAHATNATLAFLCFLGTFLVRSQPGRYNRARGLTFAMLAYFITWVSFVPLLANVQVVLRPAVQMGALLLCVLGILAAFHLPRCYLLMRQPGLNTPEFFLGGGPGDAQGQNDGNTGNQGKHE
Excerpt: as §1

[5] = molecular target: T4, CSR::T1R2-b/CSR::T1R3-b chimeric heterodimer (Homo sapiens, UniProt P41180+Q7RTX0+Q8TE23); assay: Fluo-4 calcium assay, transiently transfected HEK293T/Gα16-gustducin 44 cells (Example 6b); details: mean of six replicates; Calcium Chloride (2 mM), Sucralose (0.5 mM), perillartine (50 μM)
T4 sequence (P41180+Q8TE23 with tags, fused parts or gaps): T2 sequence (P41180+Q8TE23 with tags, fused parts or gaps)
T4 sequence (P41180+Q7RTX0 with tags, fused parts or gaps): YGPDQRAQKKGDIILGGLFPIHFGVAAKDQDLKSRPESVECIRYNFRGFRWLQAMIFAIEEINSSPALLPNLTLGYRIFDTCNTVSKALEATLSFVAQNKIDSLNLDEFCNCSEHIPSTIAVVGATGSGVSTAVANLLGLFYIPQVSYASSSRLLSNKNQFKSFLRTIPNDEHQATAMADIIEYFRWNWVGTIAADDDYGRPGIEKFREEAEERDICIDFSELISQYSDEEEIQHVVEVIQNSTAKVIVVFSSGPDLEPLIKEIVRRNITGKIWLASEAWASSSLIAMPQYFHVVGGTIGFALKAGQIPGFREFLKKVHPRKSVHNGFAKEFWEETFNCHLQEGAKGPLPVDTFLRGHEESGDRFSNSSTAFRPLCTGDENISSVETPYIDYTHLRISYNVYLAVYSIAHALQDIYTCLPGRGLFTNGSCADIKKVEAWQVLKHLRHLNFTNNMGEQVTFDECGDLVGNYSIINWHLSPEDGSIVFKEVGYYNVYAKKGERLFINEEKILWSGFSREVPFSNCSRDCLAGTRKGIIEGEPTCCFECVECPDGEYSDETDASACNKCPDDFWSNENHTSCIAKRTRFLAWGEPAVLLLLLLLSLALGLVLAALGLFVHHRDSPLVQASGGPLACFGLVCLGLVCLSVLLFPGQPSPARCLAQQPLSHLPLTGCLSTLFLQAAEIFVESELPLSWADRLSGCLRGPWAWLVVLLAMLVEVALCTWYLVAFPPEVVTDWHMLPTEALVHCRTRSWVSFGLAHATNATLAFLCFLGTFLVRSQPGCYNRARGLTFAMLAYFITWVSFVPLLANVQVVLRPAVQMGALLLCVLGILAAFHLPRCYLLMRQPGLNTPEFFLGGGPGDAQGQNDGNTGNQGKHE
Protocol: as §2, §3, §4, §5, §6
As a negative control, mock transfected cells were exposed to the same concentration of ligand and the concentration of calcium traces not corresponding to a signal was determined. […]
as §7

| Structure (SMILES) | hCaSR AVG (net increase in fluorescence over baseline) [1] | Neg. control (mock transfection) AVG (net increase in fluorescence over baseline) [2] | response of hCaSR (in words) ([1]; Example 6a) | Neg. control (mock transfection) AVG (mean ΔF/F) [2] | CSR::R2-b alone AVG (mean ΔF/F) [3] | T1R2/T1R3 AVG (mean ΔF/F) [4] | CSR::T1R2-b/CSR::T1R3-b AVG (mean ΔF/F) [5] |
| --- | --- | --- | --- | --- | --- | --- | --- |
| COC(=O)[C@H](Cc1ccccc1)NC(=O)[C@@H](N)CC(=O)O [Aspartame] (H-Asp-Phe-OMe) | 41 RFU | −125 RFU | – | – | – | – | – |
| [Ca+2].[Cl-].[Cl-] [Calcium, Calcium Chloride] | 7610 RFU | 1570 RFU | responded | 0.20 ΔF/F | 0.424 ΔF/F | 0.19 ΔF/F | 0.46 ΔF/F |
| N#CC=Cc1ccccc1 [Cinnamonitrile] | 197 RFU | – | – | – | – | – | – |
| C=C(C)[C@@H]1CC=C(/C=N/O)CC1 [Perillartine] | 73 RFU | −379 RFU | – | 0.06 ΔF/F | 0.11 ΔF/F | 0.5 ΔF/F | 0.169 ΔF/F |
| OC[C@H]1O[C@H](O[C@]2(CCl)O[C@H](CCl)[C@@H](O)[C@@H]2O)[C@H](O)[C@@H](O)[C@H]1Cl [Sucralose] | 22 RFU | – | – | 0.03 ΔF/F | 0.016 ΔF/F | 0.12 ΔF/F | 0.017 ΔF/F |
